Where two headings read alike, the source gives them in different places.
Tests used:
[1] = system: Mycosphaerella graminicola; Anamorph: Septoria tritici; test: Fungicidal activity: Leaf Blotch of Wheat (SEPTTR); type: in vivo; conditions: Zymoseptoria tritici, wheat leaf blotch; for pest or weed control at 100 µg/mL: High Volume (100 ppm); for pest or weed control at 121.5 g/ha: Low Volume (121.5 g/H)
How it was run: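 Compounds were dissolved in acetone, diluted with nine volumes of water containing 110 ppm Triton X-100, and sprayed to run-off on first-leaf Yuma wheat seedlings inoculated with Septoria tritici spores before or after treatment. Plants were held in a dew chamber, then a 20° C. greenhouse. Percent control was derived from disease severity relative to untreated plants.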

Puccinia triticina = test: Fungicidal activity: Wheat Brown Rust (PUCCRT); type: in vivo; conditions: for pest or weed control at 100 µg/mL: High Volume (100 ppm); for pest or weed control at 121.5 g/ha: Low Volume (121.5 g/H)
How it was run: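 Percent control of brown rust was derived from 0-100% severity on treated versus untreated first leaves. Yuma wheat seedlings were spray-treated to run-off (acetone/water, Triton X-100) and inoculated with P. triticina spores before or after treatment, then held overnight in dark dew at 22° C and moved to a 24° C greenhouse.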

[2] = 24 h, 1 Day Protectant, read-out: SEPTTR 1 DP disease control
[3] = 72 h, 3 Day Curative, read-out: SEPTTR 3 DC disease control
[4] = 24 h, 1 Day Protectant, read-out: PUCCRT 1 DP disease control
[5] = 72 h, 3 Day Curative, read-out: PUCCRT 3 DC disease control

Molecule `COc1ccnc(C(=O)N[C@H]2COC[C@H](c3ccccc3)[C@@H](c3ccccc3)[C@H](C)OC2=O)c1O` [compound 116] has a pest or weed control at 100 µg/mL [1, 2] greater than 70%, a pest or weed control at 100 µg/mL [1, 3] of less than 70% and a pest or weed control at 100 µg/mL (Puccinia triticina; [4]) greater than 70%. It also gave a pest or weed control at 100 µg/mL (Puccinia triticina; [5]) greater than 70% and a melting point of 64 to 72 °C.
`COc1ccnc(C(=O)N[C@H]2COC[C@H](Cc3ccc(C(F)(F)F)cc3)[C@@H](CC(C)C)[C@H](C)OC2=O)c1OC(C)=O` [compound 72] gave a pest or weed control at 121.5 g/ha [1, 2] greater than 70%, a pest or weed control at 121.5 g/ha [1, 3] greater than 70% and a pest or weed control at 121.5 g/ha (Puccinia triticina; [4]) greater than 70%. The pest or weed control at 121.5 g/ha (Puccinia triticina; [5]) was greater than 70% and the melting point was 75 to 79 °C.

— patent US9955691B2, “Macrocyclic picolinamides as fungicides” (DOW AGROSCIENCES LLC, priority 2014, dated 2018)
